pEC50: −log10 of the molar value. In brackets after ≈: the same amount, converted by molar mass. Activity calls are given as the source filed them. No cut-off for these calls is given here.
tested on: Citrobacter freundii; assay: Minimum inhibitory concentration against Citrobacter freundii; assay type: functional; details: not given

Structure (SMILES)	MIC [µM]
Nc1ccn([C@H]2C[C@H](N)[C@@H](CO)O2)c(=O)n1	> 200
NC1CC(n2cc(F)c(=O)[nH]c2=O)OC1CO (centres undefined)	> 200
NC1CC(n2cc(I)c(=O)[nH]c2=O)OC1CO (centres undefined)	> 200
NC1CC(n2cc(Cl)c(=O)[nH]c2=O)OC1CO (centres undefined)	> 200

tested on: Priestia megaterium; assay: Minimum inhibitory concentration against Bacillus megaterium; assay type: functional; details: not given

Structure (SMILES)	MIC [µM]
NC1CC(n2cc(F)c(=O)[nH]c2=O)OC1CO (centres undefined)	40 (≈ 9.81 µg/mL)

tested on: Candida albicans; assay: Minimum inhibitory concentration against Candida albicans; assay type: functional; details: not given

Structure (SMILES)	MIC [µM]
NC1CC(n2cc(F)c(=O)[nH]c2=O)OC1CO (centres undefined)	> 200

tested on: Escherichia coli (organism); assay: Minimum inhibitory concentration against Escherichia coli; details: not given

Structure (SMILES)	MIC [µM]
NC1CC(n2cc(F)c(=O)[nH]c2=O)OC1CO (centres undefined)	> 200

tested on: Serratia marcescens; assay: Minimum inhibitory concentration against Serratia marcescens; assay type: functional; details: not given

Structure (SMILES)	MIC [µM]
Nc1ccn([C@H]2C[C@H](N)[C@@H](CO)O2)c(=O)n1	> 200
NC1CC(n2cc(F)c(=O)[nH]c2=O)OC1CO (centres undefined)	> 200
NC1CC(n2cc(I)c(=O)[nH]c2=O)OC1CO (centres undefined)	> 200
NC1CC(n2cc(Cl)c(=O)[nH]c2=O)OC1CO (centres undefined)	> 200

tested on: Klebsiella aerogenes; assay: Minimum inhibitory concentration against Enterobacter aerogenes; assay type: functional; details: not given

Structure (SMILES)	MIC [µM]
Nc1ccn([C@H]2C[C@H](N)[C@@H](CO)O2)c(=O)n1	> 200
NC1CC(n2cc(F)c(=O)[nH]c2=O)OC1CO (centres undefined)	> 200
NC1CC(n2cc(I)c(=O)[nH]c2=O)OC1CO (centres undefined)	> 200
NC1CC(n2cc(Cl)c(=O)[nH]c2=O)OC1CO (centres undefined)	> 200

tested on: Proteus vulgaris; assay: Minimum inhibitory concentration against Proteus vulgaris; assay type: functional; details: not given

Structure (SMILES)	MIC [µM]
Nc1ccn([C@H]2C[C@H](N)[C@@H](CO)O2)c(=O)n1	> 200
NC1CC(n2cc(F)c(=O)[nH]c2=O)OC1CO (centres undefined)	> 200
NC1CC(n2cc(I)c(=O)[nH]c2=O)OC1CO (centres undefined)	> 200
NC1CC(n2cc(Cl)c(=O)[nH]c2=O)OC1CO (centres undefined)	> 200

tested on: Streptococcus pyogenes; assay: Minimum inhibitory concentration against Streptococcus pyogenes; assay type: functional; details: not given

Structure (SMILES)	MIC [µM]
NC1CC(n2cc(F)c(=O)[nH]c2=O)OC1CO (centres undefined)	> 200

tested on: Proteus mirabilis; assay: Minimum inhibitory concentration against Proteus mirabilis; assay type: functional; details: not given

Structure (SMILES)	MIC [µM]
Nc1ccn([C@H]2C[C@H](N)[C@@H](CO)O2)c(=O)n1	> 200
NC1CC(n2cc(F)c(=O)[nH]c2=O)OC1CO (centres undefined)	> 200
NC1CC(n2cc(I)c(=O)[nH]c2=O)OC1CO (centres undefined)	> 200
NC1CC(n2cc(Cl)c(=O)[nH]c2=O)OC1CO (centres undefined)	> 200

tested on: unidentified adenovirus; assay: In vitro antiviral activity against adeno virus using plaque reduction assay.; assay type: functional; details: read-out: ED50 (the source's name)

Structure (SMILES)	pEC50
Nc1ccn([C@H]2C[C@H](N)[C@@H](CO)O2)c(=O)n1	< 4.00
NC1CC(n2cc(F)c(=O)[nH]c2=O)OC1CO (centres undefined)	5.00
NC1CC(n2cc(I)c(=O)[nH]c2=O)OC1CO (centres undefined)	< 4.00
NC1CC(n2cc(Cl)c(=O)[nH]c2=O)OC1CO (centres undefined)	4.00

tested on: D-38; assay: In vitro cytotoxicity against human D-38 cells.; assay type: functional; details: read-out: ED50 (the source's name)

Structure (SMILES)	pEC50
Nc1ccn([C@H]2C[C@H](N)[C@@H](CO)O2)c(=O)n1	5.52
NC1CC(n2cc(F)c(=O)[nH]c2=O)OC1CO (centres undefined)	< 4.00
NC1CC(n2cc(I)c(=O)[nH]c2=O)OC1CO (centres undefined)	< 4.00
NC1CC(n2cc(Cl)c(=O)[nH]c2=O)OC1CO (centres undefined)	< 4.00

tested on: Streptococcus agalactiae; assay: Minimum inhibitory concentration against Streptococcus agalactiae; assay type: functional; details: not given

Structure (SMILES)	MIC [µM]
NC1CC(n2cc(F)c(=O)[nH]c2=O)OC1CO (centres undefined)	20 (≈ 4.9 µg/mL)

tested on: Escherichia coli; assay: Minimum inhibitory concentration against Escherichia coli; assay type: functional; details: not given

Structure (SMILES)	MIC [µM]
Nc1ccn([C@H]2C[C@H](N)[C@@H](CO)O2)c(=O)n1	> 200
NC1CC(n2cc(I)c(=O)[nH]c2=O)OC1CO (centres undefined)	> 200
NC1CC(n2cc(Cl)c(=O)[nH]c2=O)OC1CO (centres undefined)	> 200

tested on: Salmonella typhimurium; assay: Minimum inhibitory concentration against Salmonella Typhimurium; assay type: functional, Salmonella enterica subsp. enterica serovar Typhimurium; details: Salmonella enterica

Structure (SMILES)	MIC [µM]
Nc1ccn([C@H]2C[C@H](N)[C@@H](CO)O2)c(=O)n1	> 200
NC1CC(n2cc(F)c(=O)[nH]c2=O)OC1CO (centres undefined)	> 200
NC1CC(n2cc(I)c(=O)[nH]c2=O)OC1CO (centres undefined)	> 200
NC1CC(n2cc(Cl)c(=O)[nH]c2=O)OC1CO (centres undefined)	> 200

tested on: Shigella flexneri; assay: Minimum inhibitory concentration against Shigella flexneri; assay type: functional; details: not given

Structure (SMILES)	MIC [µM]
Nc1ccn([C@H]2C[C@H](N)[C@@H](CO)O2)c(=O)n1	> 200
NC1CC(n2cc(F)c(=O)[nH]c2=O)OC1CO (centres undefined)	> 200
NC1CC(n2cc(I)c(=O)[nH]c2=O)OC1CO (centres undefined)	> 200
NC1CC(n2cc(Cl)c(=O)[nH]c2=O)OC1CO (centres undefined)	> 200

tested on: Salmonella; assay: Minimum inhibitory concentration against Salmonella typhi; assay type: functional, salmonella typhosa; details: not given

Structure (SMILES)	MIC [µM]
Nc1ccn([C@H]2C[C@H](N)[C@@H](CO)O2)c(=O)n1	> 200
NC1CC(n2cc(F)c(=O)[nH]c2=O)OC1CO (centres undefined)	> 200
NC1CC(n2cc(I)c(=O)[nH]c2=O)OC1CO (centres undefined)	> 200
NC1CC(n2cc(Cl)c(=O)[nH]c2=O)OC1CO (centres undefined)	> 200

tested on: Pasteurella multocida; assay: Minimum inhibitory concentration against Pasteurella multocida; assay type: functional; details: not given

Structure (SMILES)	MIC [µM]
Nc1ccn([C@H]2C[C@H](N)[C@@H](CO)O2)c(=O)n1	> 200
NC1CC(n2cc(F)c(=O)[nH]c2=O)OC1CO (centres undefined)	> 200
NC1CC(n2cc(I)c(=O)[nH]c2=O)OC1CO (centres undefined)	> 200
NC1CC(n2cc(Cl)c(=O)[nH]c2=O)OC1CO (centres undefined)	> 200

tested on: Klebsiella pneumoniae; assay: Minimum inhibitory concentration against Klebsiella pneumoniae; assay type: functional; details: not given

Structure (SMILES)	MIC [µM]
Nc1ccn([C@H]2C[C@H](N)[C@@H](CO)O2)c(=O)n1	> 200
NC1CC(n2cc(F)c(=O)[nH]c2=O)OC1CO (centres undefined)	> 200
NC1CC(n2cc(I)c(=O)[nH]c2=O)OC1CO (centres undefined)	> 200
NC1CC(n2cc(Cl)c(=O)[nH]c2=O)OC1CO (centres undefined)	> 200

tested on: L cells; assay: in vitro cytotoxicity against mouse L cells.; assay type: functional; details: L929, read-out: ED50 (the source's name)

Structure (SMILES)	pEC50
Nc1ccn([C@H]2C[C@H](N)[C@@H](CO)O2)c(=O)n1	6.00
NC1CC(n2cc(F)c(=O)[nH]c2=O)OC1CO (centres undefined)	4.00
NC1CC(n2cc(I)c(=O)[nH]c2=O)OC1CO (centres undefined)	< 4.00
NC1CC(n2cc(Cl)c(=O)[nH]c2=O)OC1CO (centres undefined)	4.00

tested on: Vibrio cholerae; assay: Minimum inhibitory concentration against Vibrio cholerae; assay type: functional; details: not given

Structure (SMILES)	MIC [µM]
Nc1ccn([C@H]2C[C@H](N)[C@@H](CO)O2)c(=O)n1	> 200
NC1CC(n2cc(F)c(=O)[nH]c2=O)OC1CO (centres undefined)	> 200
NC1CC(n2cc(I)c(=O)[nH]c2=O)OC1CO (centres undefined)	> 200
NC1CC(n2cc(Cl)c(=O)[nH]c2=O)OC1CO (centres undefined)	> 200

tested on: Pseudomonas aeruginosa; assay: Minimum inhibitory concentration against Pseudomonas aeruginosa; assay type: functional; details: not given

Structure (SMILES)	MIC [µM]
Nc1ccn([C@H]2C[C@H](N)[C@@H](CO)O2)c(=O)n1	> 200
NC1CC(n2cc(F)c(=O)[nH]c2=O)OC1CO (centres undefined)	> 200
NC1CC(n2cc(I)c(=O)[nH]c2=O)OC1CO (centres undefined)	> 200
NC1CC(n2cc(Cl)c(=O)[nH]c2=O)OC1CO (centres undefined)	> 200

tested on: P388; assay: Activity against P-388/0 mouse tumor at 675 mg/kg administered three times on days 1, 5, 9 after implantation; Inactive; assay type: functional, organism-based; parameters: dose 675 mg/kg; details: not given

Structure (SMILES)	Activity
NC1CC(n2cc(F)c(=O)[nH]c2=O)OC1CO (centres undefined)	inactive

tested on: Staphylococcus aureus; assay: In vitro minimum inhibitory concentration against Staphylococcus aureus; assay type: functional; details: not given

Structure (SMILES)	MIC [µM]
Nc1ccn([C@H]2C[C@H](N)[C@@H](CO)O2)c(=O)n1	> 400
NC1CC(n2cc(F)c(=O)[nH]c2=O)OC1CO (centres undefined)	4 (≈ 0.981 µg/mL)
NC1CC(n2cc(I)c(=O)[nH]c2=O)OC1CO (centres undefined)	> 400
NC1CC(n2cc(Cl)c(=O)[nH]c2=O)OC1CO (centres undefined)	> 200

tested on: Enterococcus faecalis; assay: Minimum inhibitory concentration against Streptococcus faecalis; assay type: functional; details: not given

Structure (SMILES)	MIC [µM]
NC1CC(n2cc(F)c(=O)[nH]c2=O)OC1CO (centres undefined)	20 (≈ 4.9 µg/mL)

— ChEMBL document CHEMBL1122236, “3'-Amino-2',3'-dideoxyribonucleosides of some pyrimidines: synthesis and biological activities” (1983)
